Experimental data reported in patent US8207136B2, “Nucleoside compounds and methods of use thereof” (The Board of Trustees of the University of Illinois, priority 2005, dated 2012).

Legend:
p21 promoter = assay: p21 promoter-lacZ reporter screen in LIM1215 colon carcinoma cells; type: cell-based, human; settings: 10 μM, 24 hours
Method: LIM1215 colon carcinoma cells harboring the lacZ reporter gene under the control of a 2.3 kb p21 promoter (containing two p53 binding sites) were grown in 96-well plates. Diversity set, a chemical compound library containing approximately 2000 compounds (dissolved in DMSO), was obtained from the National Cancer Institute (NCI) and was used at a final concentration of 10 μM on the cells for 24 hours. lacZ encoded β-Gal was detected by X-Gal staining as described previously.
In order to find small molecule transcriptional inhibitors of p21, we generated LIM1215 colon cancer cells, carrying lacZ under the control of p21 promoter, as a screening system for testing ˜2000 structurally diverse compounds (Diversity Set) obtained from National Cancer Institute (NCI). […] To determine if these effects mediated by ARC were dose-dependent, we treated HCT-116 colon carcinoma cells with different concentrations of ARC.

P-TEFb (Cdk9/Cyclin T1) = target: T1, P-TEFb (Cdk9/Cyclin T1) (Homo sapiens, UniProt P50750); assay: P-TEFb kinase assay with GST-CTD as substrate; type: biochemical; settings: 30° C., 1 hour
T1 construct: gift from Dr. Nekhai (Howard University)
Method: Purified P-TEFb (Cdk9/Cyclin T1) protein and GST-CTD (GST-tagged C-terminal domain of RNA polymerase II) expression plasmid were gifts from Dr. Nekhai (Howard University). GST-CTD protein was expressed in BL21 E. coli (Stratagene) and purified using a GST protein purification kit (Amersham Biosciences). The kinase assay was performed at 30° C. for 1 hour in the presence of P-TEFb with or without the addition of ARC. The phosphorylation levels of GST-CTD were detected with anti-phospho RNA polymerase II antibody (4735; Cell Signaling).
(§1) It is known that DRB and flavopiridol inhibit transcription by blocking the kinase activity of P-TEFb, which in turn leads to decreased phosphorylation of RNA polymerase II C-terminal domain (CTD). To determine if ARC operates by a similar mechanism, a kinase assay was performed with purified P-TEFb using GST-CTD (GST tagged C-terminal domain of RNA polymerase II) as the substrate. […] To evaluate this effect in vivo, HCT-116 cells were treated with ARC for 3 hours and analyzed levels of phospho-RNA polymerase II by immunoblotting. While the total amount of RNA polymerase II remained unchanged, phosphorylation of the RNA polymerase II CTD decreased upon ARC treatment (FIG. 2D), consistent with the in vitro kinase assay.

[1] = system: phospho-RNA polymerase II; assay: Immunoblot of phospho-RNA polymerase II in HCT-116 cells; type: cell-based, human; settings: 3 hours
Method: Immunoblotting was performed as described with antibodies specific for p53 (sc-126 HRP; Santa Cruz), hdm2 (sc-965; Santa Cruz), p21 (556431; BD Pharmingen), Sp1 (sc-59; Santa Cruz), survivin (sc-10811; Santa Cruz), phospho RNA polymerase II (4735; Cell Signaling), total RNA polymerase II (8WG16; a gift from Dr. Schlegel, University of Illinois at Chicago), α-tubulin (T9026; Sigma), cleaved caspase-3 (9664; Cell Signaling), caspase-9 (9502; Cell Signaling) and β-actin (A5441; Sigma) antibodies.
as §1

HUVECs [2] = assay: Cord formation assay; type: cell-based; settings: Homo sapiens, HUVEC, 24 hours, averages from three trials
Method: (§2) Different angiogenesis assays such as cord formation assay, motility assay and proliferation inhibition assay were performed at the developmental therapeutics program (DTP) branch of NCI (NCI/DTP) as described. HUVECs were used for all the assays. Taxol and TNP-470 were used as positive control for the assays.
For cord formation assay, HUVECs were plated on a three dimensional layer of Matrigel, where the cells formed cord-like structures. Later, the cells were treated with vehicle (DMSO) or different concentrations of ARC for 24 hours, after which cord formation was quantitated as a function of cord junctions and cord length.

HUVECs [3] = assay: Motility assay with VEGF as chemoattractant; type: cell-based; settings: Homo sapiens, HUVEC; 24 hours pretreatment, average from two trials; read-out: IC50, cell motility
Method: as §2
For motility assay, HUVECs were pretreated for 24 hours with different concentrations ARC and used in the assay with vascular endothelial growth factor (VEGF) as a chemoattractant.

HUVECs [4] = assay: Proliferation inhibition assay; type: cell-based; settings: Homo sapiens, HUVEC; 10 ng/ml VEGF, 24, 48 or 72 hours, average from two trials; read-out: IC50, HUVEC growth
Method: as §2
For proliferation inhibition assay, HUVECs were grown in the absence of growth factors for 24 hours and then stimulated with 10 ng/ml VEGF and were treated with either DMSO or different concentrations of ARC for 24 hours, 48 hours or 72 hours.

Mcl-1, Bcl-2 = assay: Immunoblot of Bcl-2 and Mcl-1 levels; type: cell-based
Method: FIG. 8. ARC downregulates Mcl-1 levels in different cancer cells. (A) U937 leukemia cells were treated with different concentrations of ARC as indicated for 24 hours and the cell lysates were probed for Mcl-1 levels. (B) Neuroblastoma cell lines were treated either with DMSO or 1 μM ARC for 24 hours and levels of Mcl-1 were assessed by immunoblotting.
In order to further probe the mechanism of ARC-induced apoptosis, whether or not ARC causes mitochondrial injury was investigated. Permeabilization of mitochondria, followed by cytochrome c release has previously been observed for transcriptional inhibitor flavopiridol. For this analysis, leukemia cell lines CEM, HL-60, NB4 and U937 were treated with either DMSO or ARC. […] It is well known that the Bcl2 family members (eg., Bcl-2, Bcl-XL, Mcl-1) protect the mitochondrial integrity, thereby acting in an anti-apoptotic manner. It is possible that ARC modulates the expression of one or more of these proteins to cause mitochondrial injury.

[5] = Preliminary toxicity studies (NCI/DTP) in mice; type: in vivo; settings: as high as 200 mg/Kg, 5-day period, B6D2FI mice
Text: Similarly, p21 may also act in an anti-apoptotic fashion by inducing cell-cycle arrest or by inhibiting pro-apoptotic molecules such as procaspase-3 and apoptosis signal-regulating kinasel (ASK1). […] The fact that ARC represses both survivin and p21 makes a strong case for consideration of ARC as a potential anti-tumor agent. This is further supported by the observation that ARC was >10-fold more efficient in inducing apoptosis than the other nucleoside analog DRB (FIG. 5F). This is especially intriguing because, as shown herein, ARC and DRB repress global transcription to similar extent (FIG. 2A). […] Preliminary toxicity studies from NCI/DTP indicate that concentrations as high as 200 mg/Kg were non-toxic to B6D2FI mice during a 5-day period.

T1 sequence (P50750 whole entry, species assumed): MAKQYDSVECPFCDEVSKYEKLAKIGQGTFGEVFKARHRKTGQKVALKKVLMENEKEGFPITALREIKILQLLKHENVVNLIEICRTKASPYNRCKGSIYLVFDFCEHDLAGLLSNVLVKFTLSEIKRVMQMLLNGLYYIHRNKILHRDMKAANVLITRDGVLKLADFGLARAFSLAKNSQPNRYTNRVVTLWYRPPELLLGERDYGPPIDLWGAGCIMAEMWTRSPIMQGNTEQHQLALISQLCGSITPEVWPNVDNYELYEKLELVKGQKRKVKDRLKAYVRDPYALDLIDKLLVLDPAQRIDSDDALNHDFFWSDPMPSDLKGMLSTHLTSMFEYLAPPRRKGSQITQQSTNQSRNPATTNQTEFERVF
T1 sequence (O60563 whole entry partner, species assumed): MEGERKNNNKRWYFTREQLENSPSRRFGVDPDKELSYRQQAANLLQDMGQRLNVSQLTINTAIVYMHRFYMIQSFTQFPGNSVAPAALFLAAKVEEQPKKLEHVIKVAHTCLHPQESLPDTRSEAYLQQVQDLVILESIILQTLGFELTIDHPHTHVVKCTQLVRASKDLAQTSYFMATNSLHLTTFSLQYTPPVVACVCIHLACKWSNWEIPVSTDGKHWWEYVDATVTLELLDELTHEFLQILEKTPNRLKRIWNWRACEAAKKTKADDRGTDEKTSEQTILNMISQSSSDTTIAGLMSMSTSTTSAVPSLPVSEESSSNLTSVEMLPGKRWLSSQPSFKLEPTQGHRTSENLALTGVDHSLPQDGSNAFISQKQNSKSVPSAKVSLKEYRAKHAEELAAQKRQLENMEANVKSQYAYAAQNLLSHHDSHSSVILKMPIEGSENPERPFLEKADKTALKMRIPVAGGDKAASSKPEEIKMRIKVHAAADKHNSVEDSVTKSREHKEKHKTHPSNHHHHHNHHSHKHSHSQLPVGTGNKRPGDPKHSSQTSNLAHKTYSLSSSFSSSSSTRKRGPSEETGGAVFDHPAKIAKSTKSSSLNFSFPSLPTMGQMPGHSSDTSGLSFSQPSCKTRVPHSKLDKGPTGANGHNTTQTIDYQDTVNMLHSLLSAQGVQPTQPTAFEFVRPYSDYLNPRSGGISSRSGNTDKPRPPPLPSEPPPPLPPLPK

SMILES: NNc1c(C(N)=O)c2c(N)ncnc2n1[C@@H]1O[C@H](CO)[C@@H](O)[C@H]1O [ARC, 4-amino-6-hydrazino-7-beta-D-ribofuranosyl-7H-pyrrolo[2,3-d]-pyrimidine-5-carboxamide]
- p21 promoter driven β-Gal expression (p21 promoter): inhibit p21 promoter
- phosphorylation of GST-CTD by P-TEFb (P-TEFb (Cdk9/Cyclin T1)): potently decreased the phosphorylation of GST-CTD
- phosphorylation of the RNA polymerase II CTD in cells [1]: decreased
- IC50 (HUVECs [2]; read-out: IC50, cord junctions): ~0.345 µM
- IC50 (HUVECs [2]; read-out: IC50, cord length): ~0.382 µM
- IC50 (HUVECs [3]): ~0.83 µM
- IC50 (HUVECs [4]): ~0.047 µM
- Mcl-1 levels (Mcl-1, Bcl-2; U937 leukemia and neuroblastoma cell lines, 24 hours): drastically reduced
- Bcl-2 levels (Mcl-1, Bcl-2; data not shown): no changes in the levels of Bcl-2
- toxicity [5]: non-toxic
